# Measurements reported in patent US12677848B2, “Stevia flavor compositions” (PURECIRCLE USA INC., priority 2019, dated 2026).
# Columns and labels:
# Assay type in all cases: in vivo, human
# [1] = test system: consumer panel (company employees); experiment: Sweetness perception threshold in puffed corn breakfast cereal (2-AFC)
# Experimental: […] As recommended by the FEMA Sensory guidance document,—Guidance for the Sensory Testing of Flavorings with Modifying Properties, within the FEMA GRAS™ Program, 2013—the recognition threshold concentration was determined using 2-alternateve forced choice (2-AFC) methodology.
# This is an evaluation of the recognition threshold concentration to follow methodology outlined in section 1.4.2 of the “Guidance for the Sensory Testing of Flavorings with Modifying Properties within the FEMA GRAS™ Program”.
# Sample Preparation: The puffed corn cereal (with no added sugar or flavor) purchased from local stores and sprayed with aqueous sucrose solutions using a portable atomizer to create a fine mist while tumbling the dry cereal grains. All the samples were dried to remove the added water from the samples. About 3 g of cereal was portioned into appropriately labeled blind-coded plastic 2 oz soufflé cup with lids. Samples were served dry to all panelists.
# [2] = test system: consumer panel (company employees); experiment: Sweetness perception threshold in lemon poppy seed muffin (2-AFC); details: n = 30
# Source text: Additional threshold test data found for Lemon Poppy Seed Muffin provided in Appendix. [table] [table]
# [3] = test system: consumer panel (company employees); experiment: Sweetness perception threshold in neutral water (2-AFC); details: n = 30
# Source text: Therefore we selected 50 ppm of PCS-3028 as the recognition threshold concentration. [table] This is a re-evaluation of the recognition threshold concentration to follow methodology outlined in section 1.4.2 of the “Guidance for the Sensory Testing of Flavorings with Modifying Properties within the FEMA GRAS™ Program”.
# [4] = Puffed Corn Cereal + vs + 250 ppm PCS-3028, n = 30
# [5] = 4% sugar vs 70 ppm PCS3028 in muffins
# [6] = 4% sugar vs 150 ppm PCS3028 in muffins
# [7] = 4% sugar vs 250 ppm PCS3028 in muffins
# [8] = 1.5% sucrose vs 30 ppm PCS-3028 in water
# [9] = 1.5% sucrose vs 50 ppm PCS-3028 in water
# [10] = 1.5% sucrose vs 70 ppm PCS-3028 in water
smiles,measurement,setting,value
OC[C@H]1O[C@@](CO)(O[C@H]2O[C@H](CO)[C@@H](O)[C@H](O)[C@H]2O)[C@@H](O)[C@@H]1O [Sucrose],PC (panelists naming the sample as sweeter),"[1]; Puffed Corn Cereal + vs + 150 ppm PCS-3028, n = 30",28
same,% Frequency (sample named as sweeter),"[1]; Puffed Corn Cereal + vs + 150 ppm PCS-3028, n = 30, listed as Sugar",93.3%
same,% Frequency (sample named as sweeter),[1]; [4],43.3%
same,PC (panelists naming the sample as sweeter),[1]; [4],13
same,Frequency (sample named as sweeter),[2]; [5],76.7%
same,PC (panelists naming the sample as sweeter),[2]; [5],23
same,Frequency (sample named as sweeter),[2]; [6],70%
same,PC (panelists naming the sample as sweeter),[2]; [6],21
same,Frequency (sample named as sweeter),[2]; [7],33.3%
same,PC (panelists naming the sample as sweeter),[2]; [7],10
same,% Frequency (sample named as sweeter),[3]; [8],96.7%
same,PC (panelists naming the sample as sweeter),[3]; [8],29
same,PC (panelists naming the sample as sweeter),[3]; [9],21
same,Percent Frequency (sample named as sweeter),[3]; [9],70.0%
same,% Frequency (sample named as sweeter),[3]; [10],10%
same,PC (panelists naming the sample as sweeter),[3]; [10],3
